Data: US10327423B2, “Antimicrobial compounds and compositions, and uses thereof” (Akeso Biomedical, Inc., priority 2014, dated 2019)
“Also recorded” adds a separate entry of the source.

How the values were obtained:
[1] = test system: Enteropathogenic E. coli (EPEC) E2348/69; assay: Crystal violet assay of attachment to plastic wells; type: cell-based, Escherichia coli; settings: FeDOPA 68-250 μM; 48 hours at 37° C.
Protocol: (§1) Enteropathogenic E. coli (EPEC) E2348/69 were grown in wells for 48 hours at 37° C. in the presence of FeQ (100 μM), and in the absence of FeQ (as control). After 48 hours, the wells were washed in order to remove suspended cells. Crystal violet was then added to each well. The wells were then washed to remove excess dye. A mixture of acetone/ethanol was then added to the wells to re-suspend any cells attached to the plastic surface of the wells, and dissolve any dye present. The presence of dye in each well was then quantified by measuring the O.D. at 570 nm.
as §1, with “FeDOPA (10-250” for “FeQ (100”, “FeDOPA” for “FeQ”

EPEC-AcsrA = assay: BioFlux system, disruption of a mature biofilm; type: cell-based, Escherichia coli; settings: 20 hours
Protocol: The mature biofilm was treated with FeTyr at concentrations of 100, 150 and 200 μM for 20 hours and compared to a control biofilm that had just been treated with LB medium 30% v/v. […] Mature biofilm was treated with FeDOPA at a concentration of 100 μM for 20 hours and compared to a control biofilm that had just been treated with LB medium 30% v/v.

[2] = test system: Enteropathogenic E. coli (EPEC) strain E2348/69; assay: Growth curve of antibiotic resistant EPEC with gentamicin and Fe complex; type: cell-based, Escherichia coli
Protocol: The impact on the growth curve of antibiotic resistant Enteropathogenic E. coli (EPEC) strain E2348/69 (genotype Wild Type EPEC O17:H6) when grown in the presence of (i) gentamicin (1.25 μM), (ii) Fe-Tyr (100 μM), (iii) gentamicin (1.25 μM) and Fe-Tyr (1.25 μM), and (iv) a control with no gentamicin or Fe-Tyr present was determined.
(§2) The impact on the growth curve of antibiotic resistant Enteropathogenic E. coli (EPEC) strain E2348/69 (genotype Wild Type EPEC O17:H6) when grown in the presence of a fixed concentration of gentamicin (1.25 μM) and an increasing concentration of FeQ versus the strain grown in the presence of only FeQ or only gentamicin, was determined.
as §2, with “FeDOPA” for “FeQ”

[3] = Growth performance of broilers challenged with Campylobacter dirty litter at day 20; type: in vivo, chicken (Ross 308 male broilers); settings: treatment groups 3, 5, 6, 7 (FeQ) and 8 (FeTyr)
Protocol: (§3) A study was performed to evaluate growth promotion and reduction of Campylobacter carriage using FeQ and FeTyr in Ross 308 male broilers with 7 treatment groups. Each treatment group comprised four replicates of 10 birds per pen (40 birds/treatment group and 4 pens of 10 birds/treatment group), and there were 2 control groups and 5 test groups. All the test groups and one of the control groups were exposed at day 20 of the trial to dirty litter, which tested positive for Campylobacter. This method was used to provide a more natural method to Campylobacter challenge the birds. Thus there was a positive control where one treatment group was challenged with Campylobacter and one negative control group where the birds were not challenged, and five treatment groups that were all challenged with Campylobacter. The total number of birds used in the 7 treatment groups was 280. Treatment group 1 was a negative control where birds just received the commercial feed, and were not challenged with dirty litter containing Campylobacter. Treatment group 2 was the positive control where the birds received the commercial feed, and were challenged with dirty litter containing Campylobacter at day 20. Treatment group 3 received 0.22 g/L of FeQ in their drinking water and 0.22 g/Kg FeQ in their feed during the entire trial, and was challenged with dirty litter containing Campylobacter at day 20. Treatment group 5 received 0.22 g/L of FeQ in their drinking water during the entire trial, and was challenged with dirty litter containing Campylobacter at day 20. Treatment group 6 received 0.22 g/kg FeQ in their feed during the entire trial, and was challenged with dirty litter containing Campylobacter at day 20. Treatment group 7 received 0.022 g/L FeQ in their drinking water during the entire trial, and was challenged with dirty litter containing Campylobacter at day 20. Treatment group 8 received 0.02 g/L FeTyr in their drinking water during the entire trial, and was challenged with dirty litter containing Campylobacter at day 20. The FeTyr was pre-dissolved in DMSO, and diluted to provide a solution of 0.02 g/L of FeTyr in water. (An additional treatment group 4 was terminated due to solubility issues.) […]
The feeding program is show in Table 4. […] All birds were weighed individually and feed weigh backs recorded per pen at day 0, 11, 21, 24 and 42 days.
In order to minimize risk of cross-contamination, standard industry biosecurity measures were used including: disinfecting boots, changing overshoes and gloves between pens/treatments, entering Campylobacter negative pens before entering Campylobacter positive pens, and leaving adjacent pens empty. Daily health, culls, and mortality were recorded. All bird weights were recorded at 0, 11, 21, 24, 33 and 42 days. […]

EPEC-pgA^++ = assay: Crystal violet assay of disruption of a mature biofilm; type: cell-based, Escherichia coli; settings: FeTyr 100, 150 and 200 μM; 72 hours
Protocol: A mature biofilm formed by EPEC-pgA^++ was treated with FeTyr for 24, 48 and 72 hours at FeTyr concentrations of 100 μM, 150 μM and 200 μM and the presence of the biofilm after these times was compared to an untreated biofilm (labeled “Control”) using a crystal violet assay. The color of the control wells was more intense in color at 72 hours than those that were treated with FeTyr at 100, 150 and 200 μM for 72 hours.

Campylobacter = Campylobacter carriage in chickens (cfu/g of droppings and caeca samples); type: in vivo; settings: treatment groups 3, 5, 6, 7 (FeQ) and 8 (FeTyr), days 0-42; dirty litter challenge
Protocol: as §3, with “20.” for “20. Treatment group 7 received 0.022 g/L FeQ in their drinking water during the entire trial, and was challenged with dirty litter containing Campylobacter at day 20. Treatment group 8 received 0.02 g/L FeTyr in their drinking water during the entire trial, and was challenged with dirty litter containing Campylobacter at day 20. The FeTyr was pre-dissolved in DMSO, and diluted to provide a solution of 0.02 g/L of FeTyr in water. (An additional treatment group 4 was terminated due to solubility issues.)”
Prior to challenging the chickens with dirty litter containing Campylobacter at day 20, each pen was tested for Campylobacter using cloacal swabs. […] Samples were analyzed for blood chemistry, including analysis for alkaline phosphatase, aspartate amino transferase, alanine amino transferase, gamma-glutamyl transferase, lactate dehydrogenase, total protein, albumin, globulin, amylase and glucose.

[4] = test system: Psuedomonas aeruginosa (PAO1N); assay: Growth (OD600) in LB with Amikacin, tolerance to antibiotic; type: cell-based, Pseudomonas aeruginosa; settings: 34, 100, 200 and 340 μM of FeQ or FePhe; Amikacin 10 µg/ml; 17.5 hours at 37° C.
Protocol: (§4) To investigate effects upon antibiotic resistance, a laboratory strain of Psuedomonas aeruginosa (PAO1N) and a mixed population of clinical isolates (PAO Mixed) were incubated in Luria-Bertani (LB) media alone, or with different concentrations (34 μM, 100 μM, 200 μM and 340 μM) of FeQ or FePhe.
(§5) Each of the different media, bar one control, contained 10 µg/ml of the aminoglycoside antibiotic Amikacin.
(§6) 10 μl of the bacterial strains were added into each well of a 96-well micro-titer plate, before 290 μl of the relevant media was added to wells. Each different condition was repeated in sextuplicate.
(§7) The plate was incubated at 37° C. within a micro-titer plate reader for 17.5 hours, with the OD600 read every 30 minutes.

[5] = test system: mixed population of clinical isolates (PAO Mixed); assay: as above; type: cell-based, Pseudomonas aeruginosa; settings: 34, 100, 200 and 340 μM of FeQ or FePhe; Amikacin 10 µg/ml; 17.5 hours at 37° C.
Protocol: as §4, §5, §6, §7

O=C1[O][Fe]23([NH]C1Cc1ccc(O)c(O)c1)([NH]C(Cc1ccc(O)c(O)c1)C(=O)[O]2)[NH]C(Cc1ccc(O)c(O)c1)C(=O)[O]3 [FeDOPA, a complex of L-DOPA with Fe III (3,4 dihydrophenylalanine)]
attachment of EPEC cells to plastic well surface and biofilm formation (crystal violet, O.D. 570 nm) [1]: inhibited | dispersion of mature biofilm (EPEC-AcsrA; FeDOPA 100 μM): dispersed the biofilm | rate of growth relative to gentamicin alone ([2]; gentamicin 1.25 μM and FeDOPA 130, 160, 200 μM): inhibited

O=C1[O][Fe]23([NH]C1Cc1ccc(O)cc1)([NH]C(Cc1ccc(O)cc1)C(=O)[O]2)[NH]C(Cc1ccc(O)cc1)C(=O)[O]3 [FeTyr, a complex of L-tyrosine with Fe III]
ABW at day 42 versus positive control (challenged, untreated) [3]: performed better than the positive control | MFCR at day 42 versus positive control (challenged, untreated) [3]: performed better than the positive control | optical absorbance of crystal violet at 570 nm of remaining mature biofilm versus untreated (EPEC-pgA^++): significantly lower optical absorbance | dispersion of mature biofilm (EPEC-AcsrA; FeTyr 100, 150 and 200 μM): biofilm dispersion increased | average Campylobacter cfu/g of caeca samples at day 42 versus positive control (Campylobacter): lower levels of Campylobacter in their caeca; also recorded: performed better than the positive control | rate of growth (growth curve) ([2]; Fe-Tyr 100 μM alone): comparable to the control | rate of growth relative to gentamicin alone ([2]; gentamicin 1.25 μM and Fe-Tyr 1.25 μM): loses its resistance; also recorded: inhibited

A complex of L-phenylalanine with Fe III [Fe-Phe]
tolerance to the aminoglycoside Amikacin (OD600 growth) [4]: reducing tolerance | tolerance to the aminoglycoside Amikacin (OD600 growth) [5]: reducing tolerance
